Earlier results on one compound are cited in patent US20100234288A1, “SUSTAINED RELEASE PHARMACEUTICAL COMPOSITION ON THE BASIS OF RELEASE SYSTEM COMPRISING AN ACID-SOLUBLE POLYMER AND A pH-DEPENDENT POLYMER” (PANACEA BIOTEC LTD, priority 2006, published 2010).

SMILES strings stand for the structures.

In the case of `O=C1Cc2cc(CCN3CCN(c4nsc5ccccc45)CC3)c(Cl)cc2N1` [Ziprasidone, 5-[2-[4-(1,2-benzisothiazol-3-yl)-1-piperazinyl]ethyl]-6-chloro-1,3-dihydro-2H-indol-2-one], the “time to reach peak plasma concentrations” value (after oral administration) was 6 to 8 h. In addition, the “effect of food on absorption” value (presence of food, gastrointestinal absorption) was “doubles the absorption”.
